# Measurements taken from patent publication US20230085307A1, “PYRIDAZINONE COMPOUND AND HERBICIDE” (NISSAN CHEMICAL CORPORATION, priority 2019, published 2023).
# Experiments:
# barnyard grass [1] = experiment: Test Example 4: herbicidal effect by soil treatment (Table 19, symbol H); type: in vivo, barnyard grass (Echinochloa crus-galli); settings: amount of applied herbicide 320 g/ha
# Outline: (§1)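 Three weeks of greenhouse growth at 25° C. to 30° C. followed a uniform surface spray of water-diluted emulsion at a predetermined herbicide amount. Seeds had been sown beforehand under about 1.5 cm of sterilized diluvial soil. Grading followed criteria set out in an earlier test.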
# lambsquarters [2] = experiment: Test Example 4: herbicidal effect by soil treatment (Table 19, symbol O); type: in vivo, lambsquarters (Chenopodium album); settings: amount of applied herbicide 320 g/ha
# Outline: as §1
# southern crabgrass [3] = experiment: Test Example 4: herbicidal effect by soil treatment (Table 19, symbol F); type: in vivo, southern crabgrass (Digitaria ciliaris); settings: amount of applied herbicide 320 g/ha
# Outline: as §1
# Japanese bulrush [4] = experiment: Test Example 1: herbicidal activity, application before weed generation under submerged conditions (Table 16, symbol B); type: in vivo, Japanese bulrush (Schoenoplectus juncoides); settings: 320 g/ha applied herbicide
# Outline: (§2)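 Alluvial soil was flooded to 4 cm depth, weed seeds were sown mixed and 2.5-leaf rice seedlings were transplanted. On sowing day, the compound's emulsion, diluted in water to a set dose, was applied to the water surface. Plants grew at 25–30 °C and were scored 0–5 after three weeks.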
# oval-leafed pondweed [5] = experiment: Test Example 2: herbicidal activity, application during weed generation under submerged conditions (Table 17, symbol C); type: in vivo, oval-leafed pondweed (Monochoria vaginalis); settings: AAH 320 g/ha; application during weed generation, submerged conditions
# Outline: (§3)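 In this pot test, flooded alluvial soil (water depth 4 cm) holds all three species sown as a mixture. Once seedlings have one to two leaves, the compound's emulsion, thinned with water to the intended dose, is poured on the water; grading follows after three weeks on the earlier criteria.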
# oval-leafed pondweed [6] = experiment: Test Example 1: herbicidal activity, application before weed generation under submerged conditions (Table 16, symbol C); type: in vivo, oval-leafed pondweed (Monochoria vaginalis); settings: 320 g/ha applied herbicide
# Outline: as §2
# chickweed = experiment: Test Example 4: herbicidal effect by soil treatment (Table 19, symbol P); type: in vivo, common chickweed (Stellaria media); settings: amount of applied herbicide 320 g/ha
# Outline: as §1
# Japanese bulrush [7] = experiment: Test Example 2: herbicidal activity, application during weed generation under submerged conditions (Table 17, symbol B); type: in vivo, Japanese bulrush (Schoenoplectus juncoides); settings: AAH 320 g/ha; application during weed generation, submerged conditions
# Outline: as §3
# persian speedwell [8] = experiment: Test Example 4: herbicidal effect by soil treatment (Table 19, symbol R); type: in vivo, Persian speedwell (Veronica persica); settings: amount of applied herbicide 320 g/ha
# Outline: as §1
# blackgrass [9] = experiment: Test Example 4: herbicidal effect by soil treatment (Table 19, symbol J); type: in vivo, blackgrass (Alopecurus myosuroides); settings: amount of applied herbicide 320 g/ha
# Outline: as §1
# rice flat sedge = experiment: Test Example 3: herbicidal effect by foliage application, Wagner pot (Table 18, symbol E); type: in vivo, rice flat sedge (Cyperus iria); settings: amount of applied herbicide 320 g/ha
# Outline: (§4)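 Plants were sown in alluvial soil held under 0.1–0.5 cm standing water and grown 14 days in a greenhouse at 25–30 °C. An emulsifiable formulation, water-diluted to the set dose, was then sprayed onto the foliage, and effects were scored three weeks later using previously defined criteria.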
# wild oat [10] = experiment: Test Example 4: herbicidal effect by soil treatment (Table 19, symbol I); type: in vivo, wild oat (Avena fatua); settings: amount of applied herbicide 320 g/ha
# Outline: as §1
# Italian ryegrass [11] = experiment: Test Example 4: herbicidal effect by soil treatment (Table 19, symbol K); type: in vivo, Italian ryegrass (Lolium multiflorum); settings: amount of applied herbicide 320 g/ha
# Outline: as §1
# redroot pigweed = experiment: Test Example 4: herbicidal effect by soil treatment (Table 19, symbol N); type: in vivo, redroot pigweed (Amaranthus retroflexus); settings: amount of applied herbicide 320 g/ha
# Outline: as §1
# green foxtail [12] = experiment: Test Example 4: herbicidal effect by soil treatment (Table 19, symbol G); type: in vivo, green foxtail (Setaria viridis); settings: amount of applied herbicide 320 g/ha
# Outline: as §1
# velvetleaf [13] = experiment: Test Example 4: herbicidal effect by soil treatment (Table 19, symbol M); type: in vivo, velvetleaf (Abutilon theophrasti); settings: amount of applied herbicide 320 g/ha
# Outline: as §1
# windgrass [14] = experiment: Test Example 4: herbicidal effect by soil treatment (Table 19, symbol L); type: in vivo, windgrass (Apera spica-venti); settings: amount of applied herbicide 320 g/ha
# Outline: as §1
# barnyard grass [15] = experiment: Test Example 3: herbicidal effect by foliage application, Wagner pot (Table 18, symbol H); type: in vivo, barnyard grass (Echinochloa crus-galli); settings: amount of applied herbicide 320 g/ha
# Outline: as §4
# Chinese sprangletop = experiment: Test Example 3: herbicidal effect by foliage application, Wagner pot (Table 18, symbol D); type: in vivo, chinese sprangletop (Leptochloa chinensis); settings: amount of applied herbicide 320 g/ha
# Outline: as §4
# late watergrass [16] = experiment: Test Example 2: herbicidal activity, application during weed generation under submerged conditions (Table 17, symbol A); type: in vivo, late watergrass (Echinochloa oryzicola); settings: AAH 320 g/ha; application during weed generation, submerged conditions
# Outline: as §3
# late watergrass [17] = experiment: Test Example 1: herbicidal activity, application before weed generation under submerged conditions (Table 16, symbol A); type: in vivo, late watergrass (Echinochloa oryzicola); settings: 320 g/ha applied herbicide
# Outline: as §2
# windgrass [18] = experiment: Test Example 5: herbicidal effect by foliage application, plastic box (Table 20, symbol L); type: in vivo, windgrass (Apera spica-venti); settings: foliage application, 320 g/ha, three weeks after application
# Outline: (§5)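 Plants sown in sterilized diluvial soil and grown 14 days in a greenhouse at 25° C to 30° C, then sprayed on the foliage with the compound's emulsion diluted in water to a predetermined herbicide amount. Injury to weeds and crops scored three weeks after application on a visual rating scale.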
# blackgrass [19] = experiment: Test Example 5: herbicidal effect by foliage application, plastic box (Table 20, symbol J); type: in vivo, blackgrass (Alopecurus myosuroides); settings: foliage application, 320 g/ha, three weeks after application
# Outline: as §5
# southern crabgrass [20] = experiment: Test Example 5: herbicidal effect by foliage application, plastic box (Table 20, symbol F); type: in vivo, southern crabgrass (Digitaria ciliaris); settings: foliage application, 320 g/ha, three weeks after application
# Outline: as §5
# false cleavers = experiment: Test Example 5: herbicidal effect by foliage application, plastic box (Table 20, symbol Q); type: in vivo, false cleavers (Galium spurium); settings: foliage application, 320 g/ha, three weeks after application
# Source text: [Test Example 5] Herbicidal Effect Test by Foliage Application
# Sterilized diluvial soil was placed in a plastic box having a length of 21 cm, a width of 13 cm, and a depth of 7 cm. The seeds of each of southern crabgrass, green foxtail, barnyard grass, wild oat, blackgrass, Italian ryegrass, windgrass, velvetleaf, redroot pigweed, lambsquarters, chickweed, false cleavers, persian speedwell, corn, soybean, rice, wheat, beet, and rapeseed were sowed in a spot-like manner and covered with the soil having a thickness of about 1.5 cm. Thereafter, the plants were grown in a greenhouse at 25° C. to 30° C. After 14-day growth of the plants, the emulsion agent of the compound of the present invention prepared according to Formulation Example 2 was diluted with water so as to achieve a predetermined herbicide amount, and the diluted emulsion agent was uniformly applied to a foliage part with a small-sized spray. Three weeks after the herbicide application, the effect of the herbicide on each plant was evaluated according to the criteria of Test Example 1.
# green foxtail [21] = experiment: Test Example 5: herbicidal effect by foliage application, plastic box (Table 20, symbol G); type: in vivo, green foxtail (Setaria viridis); settings: foliage application, 320 g/ha, three weeks after application
# Outline: as §5
# velvetleaf [22] = experiment: Test Example 5: herbicidal effect by foliage application, plastic box (Table 20, symbol M); type: in vivo, velvetleaf (Abutilon theophrasti); settings: foliage application, 320 g/ha, three weeks after application
# Outline: as §5
# wild oat [23] = experiment: Test Example 5: herbicidal effect by foliage application, plastic box (Table 20, symbol I); type: in vivo, wild oat (Avena fatua); settings: foliage application, 320 g/ha, three weeks after application
# Outline: as §5
# Italian ryegrass [24] = experiment: Test Example 5: herbicidal effect by foliage application, plastic box (Table 20, symbol K); type: in vivo, Italian ryegrass (Lolium multiflorum); settings: foliage application, 320 g/ha, three weeks after application
# Outline: as §5
# barnyard grass [25] = experiment: Test Example 5: herbicidal effect by foliage application, plastic box (Table 20, symbol H); type: in vivo, barnyard grass (Echinochloa crus-galli); settings: foliage application, 320 g/ha, three weeks after application
# Outline: as §5
# lambsquarters [26] = experiment: Test Example 5: herbicidal effect by foliage application, plastic box (Table 20, symbol O); type: in vivo, lambsquarters (Chenopodium album); settings: foliage application, 320 g/ha, three weeks after application
# Outline: as §5
# persian speedwell [27] = experiment: Test Example 5: herbicidal effect by foliage application, plastic box (Table 20, symbol R); type: in vivo, Persian speedwell (Veronica persica); settings: foliage application, 320 g/ha, three weeks after application
# Outline: as §5
compound,measurement,setting,value
CCCC(=O)Oc1c(C)nn(C)c(=O)c1-c1c(-c2ccc(F)c(Cl)c2)sc2ccc(F)cc12 [2-353],"herbicidal effect, H: barnyard grass",barnyard grass [1],1 (Herbicidal rate of 5% or more and less than 20%)
same,"herbicidal effect, O: lambsquarters",lambsquarters [2],4 (Herbicidal rate of 70% or more and less than 90%)
same,"herbicidal effect, F: southern crabgrass",southern crabgrass [3],3 (Herbicidal rate of 40% or more and less than 70%)
same,Herbicidal effect on B: Japanese bulrush (grade 0-5),Japanese bulrush [4],0 (Herbicidal rate of 5% or less (almost no effect))
same,"herbicidal effect rating, C: oval-leafed pondweed",oval-leafed pondweed [5],3 (Herbicidal rate of 40% or more and less than 70%)
same,Herbicidal effect on C: oval-leafed pondweed (grade 0-5),oval-leafed pondweed [6],0 (Herbicidal rate of 5% or less (almost no effect))
same,"herbicidal effect, P: chickweed",chickweed,3 (Herbicidal rate of 40% or more and less than 70%)
same,"herbicidal effect rating, B: Japanese bulrush",Japanese bulrush [7],3 (Herbicidal rate of 40% or more and less than 70%)
same,"herbicidal effect, R: persian speedwell",persian speedwell [8],3 (Herbicidal rate of 40% or more and less than 70%)
same,"herbicidal effect, J: blackgrass",blackgrass [9],0 (Herbicidal rate of 5% or less (almost no effect))
same,herbicidal effect on E: rice flat sedge,rice flat sedge,5 (Herbicidal rate of 90% or more (almost completely withered))
same,"herbicidal effect, I: wild oat",wild oat [10],0 (Herbicidal rate of 5% or less (almost no effect))
same,"herbicidal effect, K: Italian ryegrass",Italian ryegrass [11],4 (Herbicidal rate of 70% or more and less than 90%)
same,"herbicidal effect, N: redroot pigweed",redroot pigweed,4 (Herbicidal rate of 70% or more and less than 90%)
same,"herbicidal effect, G: green foxtail",green foxtail [12],1 (Herbicidal rate of 5% or more and less than 20%)
same,"herbicidal effect, M: velvetleaf",velvetleaf [13],2 (Herbicidal rate of 20% or more and less than 40%)
same,"herbicidal effect, L: windgrass",windgrass [14],3 (Herbicidal rate of 40% or more and less than 70%)
same,herbicidal effect on H: barnyard grass,barnyard grass [15],5 (Herbicidal rate of 90% or more (almost completely withered))
same,herbicidal effect on D: Chinese sprangletop,Chinese sprangletop,5 (Herbicidal rate of 90% or more (almost completely withered))
same,"herbicidal effect rating, A: late watergrass",late watergrass [16],4 (Herbicidal rate of 70% or more and less than 90%)
same,Herbicidal effect on A: late watergrass (grade 0-5),late watergrass [17],2 (Herbicidal rate of 20% or more and less than 40%)
COc1cc2sc(-c3ccc(F)cc3)c(-c3c(O)c(C)nn(C)c3=O)c2cc1OC [5-057],herbicidal effect on windgrass (L),windgrass [18],0 (Herbicidal rate of 5% or less (almost no effect))
same,herbicidal effect on blackgrass (J),blackgrass [19],0 (Herbicidal rate of 5% or less (almost no effect))
same,herbicidal effect on southern crabgrass (F),southern crabgrass [20],0 (Herbicidal rate of 5% or less (almost no effect))
same,herbicidal effect on false cleavers (Q),false cleavers,0 (Herbicidal rate of 5% or less (almost no effect))
same,herbicidal effect on green foxtail (G),green foxtail [21],0 (Herbicidal rate of 5% or less (almost no effect))
same,herbicidal effect on velvetleaf (M),velvetleaf [22],0 (Herbicidal rate of 5% or less (almost no effect))
same,herbicidal effect on wild oat (I),wild oat [23],0 (Herbicidal rate of 5% or less (almost no effect))
same,herbicidal effect on Italian ryegrass (K),Italian ryegrass [24],0 (Herbicidal rate of 5% or less (almost no effect))
same,herbicidal effect on barnyard grass (H),barnyard grass [25],0 (Herbicidal rate of 5% or less (almost no effect))
same,herbicidal effect on lambsquarters (O),lambsquarters [26],0 (Herbicidal rate of 5% or less (almost no effect))
same,herbicidal effect on persian speedwell (R),persian speedwell [27],4 (Herbicidal rate of 70% or more and less than 90%)
